# Assay results: patent US20220324835A1 (Nurix Therapeutics, Inc., priority 2018, published 2022)
# Tests used:
# Cbl-b [1] = biological target: T1, Cbl-b (Homo sapiens, UniProt Q13191); assay: Cbl-b inhibition assay (Cbl-b activity assay, FRET, Biological Example 1; 100 mM NaCl, 60 nM Src kinase); format: biochemical; conditions: upper bound stated in text lists; read-out: IC50 values in the Cbl-b inhibition assay of Biological Example 1
# In short: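 TR-FRET assay using N-terminal biotinylated Avi-tagged Cbl-b bound to streptavidin-terbium, Src kinase for Cbl-b phosphorylation, and UbcH5B irreversibly conjugated to Bodipy-Fluorescein-ubiquitin. Phosphorylated Cbl-b binds UbcH5B-Ub, bringing the fluorophores together; inhibition is read as loss of FRET signal.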
# T-cell [2] = assay: IL-2 secretion from T-cells co-stimulated with anti-CD3 and anti-CD28 antibody (Biological Example 2); format: cell-based, human; conditions: Homo sapiens, T-cell, primary human total T-cells, baseline = anti-CD3/anti-CD28 stimulated cells without inhibitor, read-out: IL-2 secretion, Anti-CD3/Anti-CD28 stimulation, fold change over baseline; for fold induction at 0.3 µM: 0.3 μM compound; for fold induction at 1 µM: 1 μM compound; for fold induction at 4 µM: 4 μM compound
# In short: (§1)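 No assay protocol given; T-cells stimulated with anti-CD3 alone or anti-CD3 plus anti-CD28, with or without Cbl-b inhibitor. Activation read as IL-2 secretion or CD25 surface staining, expressed as fold over baseline from uninhibited cells […].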
# T-cell [3] = assay: CD25 cell surface staining on T-cells co-stimulated with anti-CD3 and anti-CD28 antibody (Biological Example 2); format: cell-based, human; conditions: Homo sapiens, T-cell, primary human total T-cells, baseline = anti-CD3/anti-CD28 stimulated cells without inhibitor, read-out: CD25 staining, Anti-CD3/Anti-CD28 stimulation, fold change over baseline; for fold induction at 0.3 µM: 0.3 μM compound; for fold induction at 1 µM: 1 μM compound; for fold induction at 4 µM: 4 μM compound
# In short: as §1
# Cbl-b [4] = biological target: T1, Cbl-b; assay: Cbl-b activity assay (Cbl-b inhibition assay), TR-FRET of Cbl-b interaction with UbcH5B-Ub; format: biochemical; conditions: assay buffer with 100 mM NaCl, 60 nM Src kinase; read-out: Cbl-b activity IC50
# In short: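 TR-FRET readout of Cbl-b binding to Bodipy-fluorescein N-terminally labeled Ub conjugated to UbcH5B C85K, measured with compound present. After compound incubation, 60 nM Src kinase with 1 mM ATP and 5 mM MgCl2 (final) was added for 1.5 h, then a further 1 h incubation; asterisked values used 50 mM NaCl buffer and 30 nM Src.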
# Cbl-b (residues 36-427) = Cbl-b (residues 36-427) (Homo sapiens, UniProt Q13191); assay: Cbl-b binding assay (SPR, Biacore T200); conditions: 20° C., 1:1 binding model
# Chain of Cbl-b (residues 36-427) (Q13191 36-427): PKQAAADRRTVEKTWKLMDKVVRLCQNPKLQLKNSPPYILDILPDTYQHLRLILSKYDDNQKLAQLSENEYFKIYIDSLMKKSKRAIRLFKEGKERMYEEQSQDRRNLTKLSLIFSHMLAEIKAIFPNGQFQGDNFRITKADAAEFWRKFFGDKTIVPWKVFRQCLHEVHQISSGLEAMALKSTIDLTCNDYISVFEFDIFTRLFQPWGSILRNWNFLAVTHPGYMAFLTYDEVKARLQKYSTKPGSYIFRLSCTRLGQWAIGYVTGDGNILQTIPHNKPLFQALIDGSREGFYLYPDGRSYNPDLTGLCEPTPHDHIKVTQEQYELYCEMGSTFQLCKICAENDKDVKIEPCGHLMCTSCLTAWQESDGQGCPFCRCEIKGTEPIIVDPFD
# In short: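 Affinities derived from global 1:1 steady-state or kinetic fits of double-referenced, solvent-corrected SPR data, 20 °C, NeutrAvidin-capture chip. Compound series (top 100 or 50 μM, 8–10 points) injected 50 s, 90–180 s dissociation. Asterisked values used 50 mM instead of 100 mM NaCl and 30 nM Src kinase.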
# T-cell [5] = assay: IL-2 secretion from T-cells stimulated with anti-CD3 antibody alone (Biological Example 2); format: cell-based; conditions: primary human total T-cells, read-out: IL-2 secretion, Anti-CD3 stimulation, fold change over baseline; for fold induction at 1 µM: 1 μM compound; for fold induction at 8 µM: 8 μM compound
# T-cell [6] = assay: CD25 cell surface staining on T-cells stimulated with anti-CD3 antibody alone (Biological Example 2); format: cell-based; conditions: primary human total T-cells, baseline = anti-CD3/anti-CD28 stimulated cells without inhibitor, read-out: CD25 staining, Anti-CD3 stimulation, fold change over baseline; for fold induction at 1 µM: 1 μM compound; for fold induction at 8 µM: 8 μM compound
# T1 sequence (Q13191 36-427): as above
Structure (SMILES),IC50 (Cbl-b [1]) [nM],fold induction at 0.3 µM (T-cell [2]),fold induction at 1 µM (T-cell [2]),fold induction at 4 µM (T-cell [2]),fold induction at 0.3 µM (T-cell [3]),fold induction at 1 µM (T-cell [3]),fold induction at 4 µM (T-cell [3]),IC50 (Cbl-b [4]) [nM],Kd (Cbl-b (residues 36-427)) [nM],fold induction at 1 µM (T-cell [5]),fold induction at 8 µM (T-cell [5]),fold induction at 1 µM (T-cell [6]),fold induction at 8 µM (T-cell [6])
"C[C@@H]1[C@@H](c2nncn2C)[C@H]1c1cccc(N2Cc3c(cccc3C(F)(F)F)C2=O)c1 [Compound 375, 2-[3-[(1 S,2S,3R)-2-methyl-3-(4-methyl-4H-1,2,4-triazol-3-yl)cyclopropyl]phenyl]-4-(trifluoromethyl)-2,3-dihydro-1H-isoindol-1-one]",≤ 100,2.51 to 5,5 to 7.5,> 7.5,1.01 to 1.3,1.31 to 1.5,1.31 to 1.5,< 100,< 100,> 0.201,> 0.201,> 1,> 1
"Cc1c[nH]nc1-c1cc2c(c(C(F)(F)F)c1)CN(c1cccc([C@H](C)Cc3nncn3C)c1)C2=O [Compound 377, 6-(4-methyl-1H-pyrazol-3-yl)-2-{3-[(2R)-1-(4-methyl-4H-1,2,4-triazol-3-yl)propan-2-yl]phenyl}-4-(trifluoromethyl)-2,3-dihydro-1H-isoindol-1-one]",≤ 100,1.01 to 2.5,5 to 7.5,> 7.5,1.31 to 1.5,1.51 to 1.75,> 1.76,< 100,< 100,> 0.201,> 0.201,0.601 to 0.8,0.801 to 1
"Cc1n[nH]c(C)c1-c1cc2c(c(C(F)(F)F)c1)CN(c1cccc([C@H](C)Cc3nncn3C)c1)C2=O [Compound 378, 6-(3,5-dimethyl-1H-pyrazol-4-yl)-2-{3-[(2R)-1-(4-methyl-4H-1,2,4-triazol-3-yl)propan-2-yl]phenyl}-4-(trifluoromethyl)-2,3-dihydro-1H-isoindol-1-one]",≤ 100,2.51 to 5,> 7.5,> 7.5,1.31 to 1.5,1.51 to 1.75,> 1.76,< 100,< 100,> 0.201,> 0.201,> 1,> 1
"C[C@H](Cc1nncn1C)c1cccc(N2Cc3c(cc(N[C@H]4CCNC4)cc3C(F)(F)F)C2=O)c1 [Compound 379, 2-(3-((R)-1-(4-methyl-4H-1,2,4-triazol-3-yl)propan-2-yl)phenyl)-6-(((S)-pyrrolidin-3-yl)amino)-4-(trifluoromethyl)isoindolin-1-one]",≤ 100,1.01 to 2.5,2.51 to 5,2.51 to 5,1.01 to 1.3,1.01 to 1.3,1.01 to 1.3,< 100,< 100,0.101 to 0.15,0.151 to 0.2,0.801 to 1,> 1
"C[C@H](Cc1nncn1C)c1cccc(N2Cc3c(cc(N(C)[C@H]4CCNC4)cc3C(F)(F)F)C2=O)c1 [Compound 380, 6-(methyl((S)-pyrrolidin-3-yl)amino)-2-(3-((R)-1-(4-methyl-4H-1,2,4-triazol-3-yl)propan-2-yl)phenyl)-4-(trifluoromethyl)isoindolin-1-one]",≤ 100,2.51 to 5,2.51 to 5,> 7.5,1.31 to 1.5,1.31 to 1.5,1.51 to 1.75,< 100,< 100,0.151 to 0.2,> 0.201,0.801 to 1,> 1
"Cc1[nH]ncc1-c1cc2c(c(C(F)(F)F)c1)CN(c1cccc([C@H](C)Cc3nncn3C)c1)C2=O [Compound 381, 6-(5-methyl-1H-pyrazol-4-yl)-2-{3-[(2R)-1-(4-methyl-4H-1,2,4-triazol-3-yl)propan-2-yl]phenyl}-4-(trifluoromethyl)-2,3-dihydro-1H-isoindol-1-one]",≤ 100,2.51 to 5,5 to 7.5,> 7.5,1.31 to 1.5,1.51 to 1.75,1.51 to 1.75,< 100,< 100,0.151 to 0.2,> 0.201,0.801 to 1,> 1
"C[C@H](Cc1nncn1C)c1cccc(N2Cc3c(cc([C@H]4CCCNC4)cc3C(F)(F)F)C2=O)c1 [Compound 383, 2-(3-((R)-1-(4-methyl-4H-1,2,4-triazol-3-yl)propan-2-yl)phenyl)-6-((R)-piperidin-3-yl)-4-(trifluoromethyl)isoindolin-1-one]",≤ 100,2.51 to 5,5 to 7.5,> 7.5,1.31 to 1.5,1.51 to 1.75,1.51 to 1.75,< 100,100 to 300,> 0.201,> 0.201,0.801 to 1,> 1
"C[C@H](Cc1nncn1C)c1cccc(N2Cc3c(cc(-n4cccn4)cc3C(F)(F)F)C2=O)c1 [Compound 384, (R)-2-(3-(1-(4-methyl-4H-1,2,4-triazol-3-yl)propan-2-yl)phenyl)-6-(1H-pyrazol-1-yl)-4-(trifluoromethyl)isoindolin-1-one]",≤ 100,2.51 to 5,> 7.5,> 7.5,1.31 to 1.5,1.51 to 1.75,1.51 to 1.75,< 100,< 100,> 0.201,> 0.201,> 1,> 1
"C[C@H](Cc1nncn1C)c1cccc(N2Cc3c(cc(CO)cc3C(F)(F)F)C2=O)c1 [Compound 392, (R)-6-(hydroxymethyl)-2-(3-(1-(4-methyl-4H-1,2,4-triazol-3-yl)propan-2-yl)phenyl)-4-(trifluoromethyl)isoindolin-1-one]",≤ 100,2.51 to 5,5 to 7.5,> 7.5,1.01 to 1.3,1.01 to 1.3,1.31 to 1.5,< 100,< 100,0.151 to 0.2,> 0.201,> 1,> 1
"C[C@H](Cc1nncn1C)c1cccc(N2Cc3c(cc(CN4C[C@@H](O)[C@H](F)C4)cc3C(F)(F)F)C2=O)c1 [Compound 395, 6-(((3R,4R)-3-fluoro-4-hydroxypyrrolidin-1-yl)methyl)-2-(3-((R)-1-(4-methyl-4H-1,2,4-triazol-3-yl)propan-2-yl)phenyl)-4-(trifluoromethyl)isoindolin-1-one]",≤ 100,2.51 to 5,> 7.5,> 7.5,1.01 to 1.3,1.31 to 1.5,1.31 to 1.5,< 100,< 100,> 0.201,> 0.201,> 1,> 1
